The source made the active and inactive calls. The calls are words filed in the database; no cut-off is given here.
Experiments:
[1] = target: T1, Transcriptional activator protein LuxR (Aliivibrio fischeri, UniProt P12746); assay: Inhibition of LuxR-dependent Vibrio fischeri quorum sensing assessed as reduction in 3-oxo-hexanoyihomoserine-induced bioluminescence
T1 sequence (P12746 whole entry): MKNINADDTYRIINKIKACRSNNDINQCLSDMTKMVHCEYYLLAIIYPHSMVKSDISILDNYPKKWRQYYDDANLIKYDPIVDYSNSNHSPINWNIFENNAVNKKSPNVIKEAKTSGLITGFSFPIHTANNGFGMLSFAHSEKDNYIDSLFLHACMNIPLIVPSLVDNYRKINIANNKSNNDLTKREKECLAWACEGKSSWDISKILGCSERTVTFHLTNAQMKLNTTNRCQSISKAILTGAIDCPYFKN

[2] = target: T2, Transcriptional activator protein LuxR (Aliivibrio fischeri) (UniProt P12746); assay: Inhibition of LuxR-dependent Vibrio fischeri quorum sensing assessed as reduction in 3-oxo-hexanoyihomoserine-induced bioluminescence upto 100 uM
T2 sequence (whole entry): T1 sequence (P12746 whole entry)

Row | SMILES | IC50 [1] [µM] | Activity [2]
1 | CCCCCC(=O)NC1=C(Br)COC1=O | 6.5 | –
2 | O=C(CCCc1ccccc1)NC1=CCOC1=O | – | inactive
3 | CCCCCC(=O)NC1=C(Cl)COC1=O | 6.9 | –
4 | CCCC(=O)CC(=O)NC1=CCOC1=O | 55 | –

Further compounds by falling IC50 [1], results first:

Row | IC50 [1] [µM] | Activity [2] | SMILES
5 | 85 | – | CCCCCC(=O)NC1=CCOC1=O
6 | 84 | – | O=C(CCCc1ccccc1)NC1=C(Br)COC1=O

From ChEMBL document CHEMBL1155864, “N-Acyl-3-amino-5H-furanone derivatives as new inhibitors of LuxR-dependent quorum sensing: Synthesis, biological evaluation and binding mode study” (Bioorg Med Chem Lett, 2008)
